The text below walks through data of US20090247732A1 (Optimer Pharmaceuticals, Inc., priority 2003, published 2009).

Ends that are not written are not given here. Peptide text beside a SMILES is read from it. * marks the point of attachment. Fmoc = O=C(OCC1c2ccccc2-c2ccccc21)*

Series [1] deals with trypsin. The experiment in a line: Degradation study with trypsin (LCMS, product ratios by PDA integration). Format: in vitro ADME. More on the design: key to Deg 1 / Deg 2: product ratio (%) by PDA peak integration. To be noted: for Deg 1 / Deg 2 / mode of enzymatic degradation (cleavage site / products): trypsin; for Deg 1 / Deg 2: pH 7.5; for Parent (%): 120 units trypsin, 0.1 M pH 7.5 potassium phosphate buffer; for mode of enzymatic degradation (cleavage site / products): in words. The method, then:
Degradation Study: A solution of 1 (1 mg) in 0.1 M, pH 7.5 potassium phosphate buffer (1 mL) was treated with 120 units of trypsin (10 μL of a 1 mg/mL solution of trypsin 12000 units/mg). A 20 μL aliquot of the sample was immediately analyzed by LCMS.
Column: Waters Symmetry 300, 4.6×250 mm, C18, 5 micron particle size.
Solvent B: Acetonitrile/0.1% TFA
Gradient: 15-40% B over 30 minutes; 15% B isocratic for 10 minutes
The initial injection was defined as “time 0” and one subsequent injection was carried out at 40 minutes. The degradation products were characterized by mass spectrometry using electrospray positive ionization (ES^+). Product ratios were determined by integration of photodiode array (PDA) spectra.

The subject of series [2] is trypsin. In words: trypsin in 0.1 M, pH 7.5 potassium phosphate buffer. To be noted: up to 40 minutes.
Setting [3] is: degradation product 1, time 40 minutes.
Setting [4] is: degradation product 2, time 40 minutes.
The mark [5] stands for this setting: time 40 (injection at 40 minutes).

Consider `N=C(N)NCCCC(NC(=O)C(CCCCN)NC(=O)C(CCCCN)NC(=O)OCC1c2ccccc2-c2ccccc21)C(=O)NCC(=O)NCC(=O)NC(CO)C(=O)O` (stereo not shown) [Compound 4] (Fmoc-KKRGGS-OH; configuration not given here), for which the “Deg 1” value in the series with trypsin [1] (degradation product 1, time 0) is 4; in the series on trypsin [1] (setting [3]), 54. Also, the “Deg 2” value with trypsin [1] (degradation product 2, time 0) is recorded as 4; in the series with trypsin [1] (setting [4]), 45. Also, the entries for the “Parent (%)” value in the series on trypsin [1] (time 0 (initial injection)) and in the series on trypsin [1] (setting [5]) were 92% and 1%, respectively. Moreover, the “mode of enzymatic degradation (cleavage site / products)” value (“mode … (cleavage site / products)” for short) with trypsin [1] is on record as “hydrolysis occurs sequentially inward from the N-terminus”.

In the case of KKRGGS, the not cleaved in the series with trypsin [2] is given as 100% parent at 40 minutes; no degradation products observed.

Take “Compound 2: Crude triphenylmethyl protected glycopeptide from peptide A (SEQ ID No. 1) and carbohydrate glycolic acid C (KKRGGS; also: glycopeptide with carbohydrate glycolic acid C, triphenylmethyl protected)”: the “Deg 1” value is reported as 0 in the series with trypsin [1] (degradation product 1, time 0) and 67 with trypsin [1] (setting [3]). Also, the entries for the “Parent (%)” value in the series with trypsin [1] (time 0 (initial injection)) and in the series on trypsin [1] (setting [5]) were 60% and 27%, respectively. Moreover, the “mode … (cleavage site / products)” value with trypsin [1] is reported as “a single, as yet uncharacterized product of the enzyme reaction”.

For the molecule KKRGGS [1], in the series with trypsin [2], the cleaved bond entry is listed as “arginine-glycine, first_seen” and the fragment found entry is listed as “the two lysine residues conjugated to the carbohydrate”.

In the case of `CC(=O)OCC1OC(OC2C(COC(C)=O)OC(OC3C(COC(C)=O)OC(OCC(=O)NC(CCCCN)C(=O)NC(CCCCN)C(=O)NC(CCCNC(=N)N)C(=O)NCC(=O)NCC(=O)NC(CO)C(=O)O)C(OC(C)=O)C3OC(C)=O)C(OC(C)=O)C2OC(C)=O)C(OC(C)=O)C(OC(C)=O)C1OC(C)=O` (stereo not shown) [Compound 1], the “Deg 1” value in the series with trypsin [1] (degradation product 1, time 0) was found to be 5; in the series on trypsin [1] (setting [3]), 0. Also, the “Deg 2” value with trypsin [1] (degradation product 2, time 0) was 20; in the series on trypsin [1] (setting [4]), 100. The figures for the “Parent (%)” value with trypsin [1] (time 0 (initial injection)) and in the series with trypsin [1] (setting [5]) were 75% and 0%, respectively. The “mode … (cleavage site / products)” value in the series on trypsin [1] is “hydrolysis is initially observed between the arginine and glycine residues”.
